Results taken from patent publication US8143296B2, “Thiazole-based compound and inhibitor of T-type calcium channel containing the same” (Korea Institute of Science and Technology, priority 2006, dated 2012).
Counter-ions that a name gives are not always drawn.

Key:
[1] = target: T1, α1G T-type calcium channel (Homo sapiens, UniProt O43497); experiment: Assay for % inhibiting activity against T-type calcium channel using FDSS6000; format: cell-based; conditions: HEK293 cells expressing α1G; for inhibition at 10 µM: HEK293, 10 μM
T1 construct: host or cells: HEK293
T1 sequence (O43497 whole entry): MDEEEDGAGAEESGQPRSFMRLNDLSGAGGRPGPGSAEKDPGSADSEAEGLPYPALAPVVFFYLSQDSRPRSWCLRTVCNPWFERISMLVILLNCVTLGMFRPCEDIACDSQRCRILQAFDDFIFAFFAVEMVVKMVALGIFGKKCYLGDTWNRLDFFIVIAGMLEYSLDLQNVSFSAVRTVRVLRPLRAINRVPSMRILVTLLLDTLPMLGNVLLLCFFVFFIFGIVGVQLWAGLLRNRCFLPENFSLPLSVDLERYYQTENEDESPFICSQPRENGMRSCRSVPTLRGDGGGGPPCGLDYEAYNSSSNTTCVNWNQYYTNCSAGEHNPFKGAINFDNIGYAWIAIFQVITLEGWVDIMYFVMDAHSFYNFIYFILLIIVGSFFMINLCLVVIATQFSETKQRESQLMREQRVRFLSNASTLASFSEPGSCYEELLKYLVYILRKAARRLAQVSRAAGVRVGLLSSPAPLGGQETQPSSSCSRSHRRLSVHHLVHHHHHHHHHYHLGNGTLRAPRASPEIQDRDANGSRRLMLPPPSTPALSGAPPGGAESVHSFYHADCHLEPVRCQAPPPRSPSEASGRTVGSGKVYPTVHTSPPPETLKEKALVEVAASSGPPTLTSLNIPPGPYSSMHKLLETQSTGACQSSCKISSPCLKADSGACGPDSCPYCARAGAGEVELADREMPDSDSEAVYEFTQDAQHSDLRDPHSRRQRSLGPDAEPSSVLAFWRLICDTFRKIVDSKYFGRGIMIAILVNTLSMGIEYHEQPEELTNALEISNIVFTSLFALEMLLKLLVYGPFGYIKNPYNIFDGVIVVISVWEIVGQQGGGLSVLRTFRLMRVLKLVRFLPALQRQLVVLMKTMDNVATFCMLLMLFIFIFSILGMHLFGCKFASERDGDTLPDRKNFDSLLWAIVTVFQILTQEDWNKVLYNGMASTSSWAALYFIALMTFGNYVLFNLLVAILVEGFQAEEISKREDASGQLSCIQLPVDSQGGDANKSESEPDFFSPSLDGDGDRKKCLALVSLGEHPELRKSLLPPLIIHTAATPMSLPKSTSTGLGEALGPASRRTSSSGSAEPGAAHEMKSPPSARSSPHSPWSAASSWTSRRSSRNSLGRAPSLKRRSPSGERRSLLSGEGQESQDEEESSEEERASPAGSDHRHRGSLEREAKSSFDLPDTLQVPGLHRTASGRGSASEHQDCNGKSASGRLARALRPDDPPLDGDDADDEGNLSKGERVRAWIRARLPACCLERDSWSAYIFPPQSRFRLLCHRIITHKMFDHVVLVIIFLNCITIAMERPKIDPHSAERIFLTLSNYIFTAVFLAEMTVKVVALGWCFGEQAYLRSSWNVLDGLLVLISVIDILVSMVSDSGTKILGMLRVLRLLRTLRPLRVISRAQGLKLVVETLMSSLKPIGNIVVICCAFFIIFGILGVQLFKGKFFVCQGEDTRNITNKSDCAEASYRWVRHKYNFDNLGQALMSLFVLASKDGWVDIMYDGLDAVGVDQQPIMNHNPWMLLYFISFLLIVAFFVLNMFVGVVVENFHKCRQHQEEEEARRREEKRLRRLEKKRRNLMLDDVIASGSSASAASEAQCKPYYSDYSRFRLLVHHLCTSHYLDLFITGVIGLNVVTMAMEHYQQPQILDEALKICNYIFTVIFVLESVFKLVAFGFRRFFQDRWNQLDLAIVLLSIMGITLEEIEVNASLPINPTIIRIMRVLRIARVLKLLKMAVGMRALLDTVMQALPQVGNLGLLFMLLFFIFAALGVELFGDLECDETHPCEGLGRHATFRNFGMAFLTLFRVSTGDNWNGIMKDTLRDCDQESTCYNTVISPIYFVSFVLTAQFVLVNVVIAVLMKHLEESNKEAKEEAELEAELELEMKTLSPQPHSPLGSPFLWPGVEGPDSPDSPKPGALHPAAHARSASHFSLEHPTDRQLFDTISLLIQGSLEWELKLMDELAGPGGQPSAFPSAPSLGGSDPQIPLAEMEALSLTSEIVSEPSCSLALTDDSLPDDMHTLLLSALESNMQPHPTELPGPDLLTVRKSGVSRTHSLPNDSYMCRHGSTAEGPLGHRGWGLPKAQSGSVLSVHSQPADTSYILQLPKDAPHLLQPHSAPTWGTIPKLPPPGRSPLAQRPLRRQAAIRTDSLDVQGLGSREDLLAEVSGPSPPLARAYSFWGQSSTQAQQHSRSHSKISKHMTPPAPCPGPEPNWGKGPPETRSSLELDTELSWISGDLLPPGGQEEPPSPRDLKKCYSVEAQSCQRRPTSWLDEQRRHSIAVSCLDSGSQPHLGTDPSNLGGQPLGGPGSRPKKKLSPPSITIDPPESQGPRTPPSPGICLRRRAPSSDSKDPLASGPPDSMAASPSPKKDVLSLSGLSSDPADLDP
Protocol: In the present invention, in order to search an efficient inhibitor against T-type calcium channel, a primary assay for T-type calcium channel inhibiting activity was conducted by a high-efficient assay using FDSS6000, wherein mammal HEK293 cell lines (originated from human kidney carcinoma cells) which specifically expresses α1G of T-type calcium channel was used for primary assay. Through the primary assay, compounds which show meaningful inhibition effects were selected. The selected compounds were used in a second assay for T-type calcium channel inhibiting activity using electrophysiological whole cell patch clamp method, wherein mammal HEK293 cell lines (originated from human kidney carcinoma cells) which specifically expresses α1G of T-type calcium channel was used for the second assay.
At 12-24 hours before being used for this assay, cells of HEK293 cell line (α1G cell line: KCTC 10519BP, Korean Collection for Type Cultures), which stably express α1G T-type calcium channel and Kir2.1, were sub-cultured in a poly-L-lysine treated 96-well plate with the density of 4×10^4 per a well using a 96-well cell dispenser (Titertek). On the of assay, the 96-well plate to which the cells were attached were washed three times with HEPES buffer solution (150 mM of NaCl, 5 mM of KCl, 1 mM of MgCl2, 2 mM of CaCl2, 10 mM of HEPES, 10 mM of glucose; pH 7.4) using a 96-well plate automatic washing device (Bio Tek), then reacted with HEPES buffer solution containing 5 μM fluo-3/AM and 0.001% Pluronic F-127 under room temperature for 1 hour, to label with fluorescent dye, and then further washed two times with HEPES buffer solution.
Thereafter, at 10 minutes before the measurement using device FDSS6000, a washing with HEPES buffer solution containing 10 mM CaCl2 was conducted once more, and the final volume was adjusted to 81 μl. Besides the above 96-well plate containing the cells, additional two drug 96-well plates were provided, wherein the 96-well plates contain inhibiting drug and KCl (final concentration: 75 mM) for activating T-type calcium channel, respectively. Since most of cell-based HTS devices are equipped with a liquid application system for injection of drug, but have no liquid sucking system, the inhibiting drug to be tested and KCl were respectively provided at the five-times higher concentration in 10 mM CaCl2 HEPES buffer solution at the amount of 27 μl, diluted five-times at the final cell plate volume of 135 μl, and then used in this test. The concrete method of measurement using FDSS6000 was as follows: After recording the reference value of 20 seconds, the change of intracellular Ca^2+ concentration which induced by treatment of the inhibiting drug to be tested for 75 seconds followed by administration of KCl was measured, wherein the percentage (%) inhibition effect of the test drug, through estimating the area of ratio value of 340/380 in the control without treatment of the test drug as 100%. As a reference drug, mibefradil was used.
For accurate calcium-imagination, the light source of 4 xenon lamps in FDSS6000 were radiated to make the cells exposed selectively to the excitation wavelength (340 nm and 380 nm) by computer-controlled filter wheel. Data was obtained at interval of each 1.23 second. The emitter fluorescence light inflowed through long-pass filter was obtained as an average 340/380 ratio value for each well in the 96-wells by using CCD camera and digital fluorescence analyzer in FDSS6000. All image data and analyses were obtained by using FDSS6000-exclusive program provide from Hamamatsu Photonics.

[2] = Table 3 (Chemical Formula 2 series)
[3] = Table 3 (Chemical Formula 2 series), hydrochloride
[4] = Table 4 (Chemical Formula 3 series)

Row | melting point [°C] | inhibition at 10 µM [1, 2] [%] | SMILES | further results
1 | 245.6 | – | Cc1nc(N=C(N)N)sc1Cc1ccc(F)cc1.Cl | –
2 | 232.8 to 233.9 | 23.2 | Cl.NC(N)=Nc1nc(CC(=O)Nc2ccc(F)cc2Cl)cs1 [KHG23169, N-(2-chloro-4-fluorophenyl)-2-(2-(diaminomethyleneamino)thiazole-4-yl)acetamide hydrochloride] | –
3 | 238.6 to 240.4 | – | Cc1ccc(NC(=O)Cc2csc(N=C(N)N)n2)cc1Cl.Cl [KHG23170, N-(3-chloro-4-methylphenyl)-2-(2-(diaminomethyleneamino)thiazole-4-yl)acetamide hydrochloride] | % Inhibition [α1G, 10 μM) using FDSS6000 [1, 3]: 30.68%
4 | 207.3 to 208.2 | 21.5 | Cl.NC(N)=Nc1nc(CC(=O)Nc2ccc(F)cc2)cs1 [KHG23171, 2-(2-(diaminomethyleneamino)thiazole-4-yl)-N-(4-fluorophenyl)acetamide hydrochloride] | –
5 | 209.3 to 210 | 27.6 | Cl.NC(N)=Nc1nc(CC(=O)Nc2cc(Cl)ccc2F)cs1 [KHG23172, N-(5-chloro-2-fluorophenyl)-2-(2-(diaminomethyleneamino)thiazole-4-yl)acetamide hydrochloride] | –
6 | 237.2 to 239.8 | 28.1 | Cl.NC(N)=Nc1nc(CC(=O)Nc2ccc(Cl)cc2F)cs1 [KHG23173, N-(4-chloro-2-fluorophenyl)-2-(2-(diaminomethyleneamino)thiazole-4-yl)acetamide hydrochloride] | –
7 | 218.6 to 220 | 18.8 | Cc1ccc(NC(=O)Cc2csc(N=C(N)N)n2)c(Cl)c1.Cl [KHG23174, N-(2-chloro-4-methylphenyl)-2-(2-(diaminomethyleneamino)thiazole-4-yl)acetamide hydrochloride] | –
8 | 236.2 to 238.3 | 23.8 | Cc1ccc(NC(=O)Cc2csc(N=C(N)N)n2)cc1.Cl [KHG23175, 2-(2-(diaminomethyleneamino)thiazole-4-yl)-N-p-tolylacetamide hydrochloride] | –
9 | 218.4 to 219.4 | 20.5 | Cl.N#Cc1ccc(NC(=O)Cc2csc(N=C(N)N)n2)cc1 [KHG23176, N-(4-cyanophenyl)-2-(2-(diaminomethyleneamino)thiazole-4-yl)acetamide hydrochloride] | –
10 | 197.8 to 198.1 | 23.3 | Cl.NC(N)=Nc1nc(CC(=O)Nc2ccccc2)cs1 [KHG23177, 2-(2-(diaminomethyleneamino)thiazole-4-yl)-N-phenylacetamide hydrochloride] | –
11 | 246.4 to 247 | 34.5 | Cl.NC(N)=Nc1nc(CC(=O)Nc2ccc(Br)cc2)cs1 [KHG23178, N-(4-bromophenyl)-2-(2-(diaminomethyleneamino)thiazole-4-yl)acetamide hydrochloride] | –
12 | 225.8 to 228.4 | – | COc1ccc(NC(=O)Cc2csc(N=C(N)N)n2)cc1F.Cl [KHG23179, 2-(2-(diaminomethyleneamino)thiazole-4-yl)-N-(3-fluoro-4-methoxyphenyl)acetamide hydrochloride] | % Inhibition [α1G, 10 μM) using FDSS6000 [1, 3]: 30.76%
13 | 244.3 to 245 | 24.9 | Cl.NC(N)=Nc1nc(CC(=O)Nc2ccc(Cl)cc2)cs1 [KHG23184, N-(4-chlorophenyl)-2-(2-(diaminomethyleneamino)thiazole-4-yl)acetamide hydrochloride] | –
14 | 248.5 to 249.2 | 12.3 | Cl.NC(N)=Nc1nc(CC(=O)Nc2cc(Cl)cc(Cl)c2)cs1 [KHG23185, 2-(2-(diaminomethyleneamino)thiazole-4-yl)-N-(3,5-dichlorophenyl)acetamide hydrochloride] | –
15 | 228 to 229.1 | 29.8 | CCc1ccc(NC(=O)Cc2csc(N=C(N)N)n2)cc1.Cl [KHG23186, 2-(2-(diaminomethyleneamino)thiazole-4-yl)-N-(4-ethylphenyl)acetamide hydrochloride] | –
16 | 187.9 to 188.6 | 21.4 | Cc1ccc(CNC(=O)Cc2csc(N=C(N)N)n2)cc1.Cl [KHG23187, 2-(2-(diaminomethyleneamino)thiazole-4-yl)-N-(4-methylbenzyl)acetamide hydrochloride] | –
17 | 169.3 to 170.1 | 19.3 | Cc1ccc(CCNC(=O)Cc2csc(N=C(N)N)n2)cc1.Cl [KHG23188, 2-(2-(diaminomethyleneamino)thiazole-4-yl)-N-(4-methylphenethyl)acetamide hydrochloride] | –
18 | 206.9 to 207.6 | 19.3 | Cl.NC(N)=Nc1nc(CC(=O)NCc2ccc(F)c(F)c2)cs1 [KHG23189, 2-(2-(diaminomethyleneamino)thiazole-4-yl)-N-(3,4-difluorobenzyl)acetamide hydrochloride] | –
19 | 219.7 to 220.5 | 18 | Cc1ccc(NC(=O)Cc2csc(N=C(N)N)n2)c(Br)c1.Cl [KHG23191, N-(2-bromo-4-methylphenyl)-2-(2-(diaminomethyleneamino)thiazole-4-yl)acetamide hydrochloride] | –
20 | – | 2.7 | NC(N)=Nc1nc(CC(=O)Nc2c(Cl)c(Cl)cc(Cl)c2Cl)cs1 [KHG23395, 2-(2-(diaminomethyleneamino)thiazole-4-yl)-N-(2,3,5,6-tetrachlorophenyl)acetamide hydrochloride] | –
21 | – | – | Cc1ccc(NC(=O)Cc2csc(N=C(N)N)n2)cc1Cl.Cl [KHG23397, N-(3-chloro-4-methylphenyl)-2-(2-(diaminomethyleneamino)thiazole-4-yl)acetamide hydrochloride] | % Inhibition [α1G, 10 μM) using FDSS6000 [1, 3]: 14.2%
22 | – | 0.2 | NC(N)=Nc1nc(CC(=O)Nc2c(Cl)cc(OC(F)(F)F)cc2Cl)cs1 [KHG23398, 2-(2-(diaminomethyleneamino)thiazole-4-yl)-N-(2,6-dichloro-4-(trifluoromethoxy)phenyl)acetamide hydrochloride] | –
23 | – | – | COc1ccc(NC(=O)Cc2csc(N=C(N)N)n2)cc1F.Cl [KHG23399, 2-(2-(diaminomethyleneamino)thiazole-4-yl)-N-(3-fluoro-4-methoxyphenyl)acetamide hydrochloride] | % Inhibition [α1G, 10 μM) using FDSS6000 [1, 3]: 3.4%
24 | – | – | NC(N)=Nc1nc(-c2ccc3[nH]c(=O)oc3c2)cs1 [KHG24022, 2-(4-(2-oxo-2,3-dihydrobenzo[d]oxazole-6-yl)thiazole-2-yl)guanidine hydrochloride] | inhibition at 10 µM [1, 4]: 10.1%
25 | – | – | NC(N)=Nc1nc(-c2ccc3ccccc3c2)cs1 [KHG24039, 2-(4-(naphthalene-2-yl)thiazole-2-yl)guanidine hydrochloride] | inhibition at 10 µM [1, 4]: 21.9%
26 | – | – | Cc1ccc(-c2csc(N=C(N)N)n2)cc1 [KHG24040, 2-(4-p-tolylthiazole-2-yl)guanidine hydrobromide] | inhibition at 10 µM [1, 4]: 16.2%
27 | – | – | COc1ccc(-c2csc(N=C(N)N)n2)cc1 [KHG24041, 2-(4-(4-methoxyphenyl)thiazole-2-yl)guanidine hydrobromide] | inhibition at 10 µM [1, 4]: 13.3%
28 | – | – | Br.NC(N)=Nc1nc(-c2ccc([N+](=O)[O-])cc2)cs1 [KHG24375, 2-(4-(4-nitrophenyl)thiazole-2-yl)guanidine hydrobromide] | % Inhibition [α1G, 10 μM) using FDSS6000 ([1]; Table 4 (Chemical Formula 3 series), hydrobromide): 19.90%
29 | – | – | NC(N)=Nc1nc(-c2ccc([N+](=O)[O-])cc2)cs1 [KHG24389, 2-(4-(4-nitrophenyl)thiazole-2-yl)guanidine hydrobromide] | inhibition at 10 µM [1, 4]: 21.9%
30 | – | – | NC(N)=Nc1nc(-c2cc(C(F)(F)F)cc(C(F)(F)F)c2)cs1 [KHG24392, 2-(4-(3,5-bis(trifluoromethyl)phenyl)thiazole-2-yl)guanidine hydrobromide] | inhibition at 10 µM [1, 4]: 12.9%
